# Laboratory results as given in US20230286970A1, “NOVEL OXADIAZOLE-BASED SELECTIVE HDAC6 INHIBITORS” (ITALFARMACO S.P.A., priority 2020, published 2023).
# Target: recombinant human HDAC6 (Homo sapiens (Human), UniProt Q9UBN7)
# Experiment: Enzymatic screening, HDAC6 inhibition (fluorogenic FdL_G substrate)
# Assay type: biochemical
# Protocol: For each test compound, 100× concentrated DMSO solutions at 8 doses were prepared and then diluted in assay buffer (25 mM Tris-HCl, pH 8, 130 mM NaCl, 0.05% Tween-20, 10% Glycerol) to obtain 5× concentrated solutions in relation to the final concentrations (typical final concentration range—6.4-200000 nM or 0.18-50000 nM, final DMSO content—1%). Then 10 μL solution of each test compound concentration were placed on a 96-well plate in triplicate and 15 μL of 3.33× concentrated enzyme solution in the assay buffer containing 3.33× concentrated BSA (final BSA concentration—2 mg/mL for HDAC4, HDAC5 and HDAC9 or 1 mg/mL for other isoforms) and in the case of HDAC6-3.33× concentrated TCEP (final TCEP concentration—200 μM) were added to each well. After a period of preincubation (incubation times and temperatures vary for different isoforms and are shown in table 1) 25 μL of solution containing the substrate were added. As substrate, FLUOR DE LYS® deacetylase substrate (Enzo Life Sciences, cat: BML-KI104, FdL), FLUOR DE LYS®-Green substrate (Enzo Life Sciences, cat: BML-KI572, FdL_G) or Boc-Lys(Tfa)-AMC (Bachem, cat: 4060676.005, Tfal)—2× concentrated solution in assay buffer were used. Following a reaction period (reaction times and temperatures vary for different isoforms and are reported in Table 1), 50 μL of the development solution consisting of concentrate FLUOR DE LYS® developer I (Enzo Life Sciences, ca: BML-KI105), diluted 200 times in buffer (50 mM Tris-HCl, pH 8, 137 mM NaCl, 2.7 mM KCl, 1 mM MgCl2) plus 2 μM TSA was added and, after 25 minutes at room temperature in the dark, using the Victor 1420 Multilabel Counter Perkin Elmer Wallac instrument, the fluorescence reading was carried out.
# recombinant human HDAC6, sequence (Q9UBN7 whole entry): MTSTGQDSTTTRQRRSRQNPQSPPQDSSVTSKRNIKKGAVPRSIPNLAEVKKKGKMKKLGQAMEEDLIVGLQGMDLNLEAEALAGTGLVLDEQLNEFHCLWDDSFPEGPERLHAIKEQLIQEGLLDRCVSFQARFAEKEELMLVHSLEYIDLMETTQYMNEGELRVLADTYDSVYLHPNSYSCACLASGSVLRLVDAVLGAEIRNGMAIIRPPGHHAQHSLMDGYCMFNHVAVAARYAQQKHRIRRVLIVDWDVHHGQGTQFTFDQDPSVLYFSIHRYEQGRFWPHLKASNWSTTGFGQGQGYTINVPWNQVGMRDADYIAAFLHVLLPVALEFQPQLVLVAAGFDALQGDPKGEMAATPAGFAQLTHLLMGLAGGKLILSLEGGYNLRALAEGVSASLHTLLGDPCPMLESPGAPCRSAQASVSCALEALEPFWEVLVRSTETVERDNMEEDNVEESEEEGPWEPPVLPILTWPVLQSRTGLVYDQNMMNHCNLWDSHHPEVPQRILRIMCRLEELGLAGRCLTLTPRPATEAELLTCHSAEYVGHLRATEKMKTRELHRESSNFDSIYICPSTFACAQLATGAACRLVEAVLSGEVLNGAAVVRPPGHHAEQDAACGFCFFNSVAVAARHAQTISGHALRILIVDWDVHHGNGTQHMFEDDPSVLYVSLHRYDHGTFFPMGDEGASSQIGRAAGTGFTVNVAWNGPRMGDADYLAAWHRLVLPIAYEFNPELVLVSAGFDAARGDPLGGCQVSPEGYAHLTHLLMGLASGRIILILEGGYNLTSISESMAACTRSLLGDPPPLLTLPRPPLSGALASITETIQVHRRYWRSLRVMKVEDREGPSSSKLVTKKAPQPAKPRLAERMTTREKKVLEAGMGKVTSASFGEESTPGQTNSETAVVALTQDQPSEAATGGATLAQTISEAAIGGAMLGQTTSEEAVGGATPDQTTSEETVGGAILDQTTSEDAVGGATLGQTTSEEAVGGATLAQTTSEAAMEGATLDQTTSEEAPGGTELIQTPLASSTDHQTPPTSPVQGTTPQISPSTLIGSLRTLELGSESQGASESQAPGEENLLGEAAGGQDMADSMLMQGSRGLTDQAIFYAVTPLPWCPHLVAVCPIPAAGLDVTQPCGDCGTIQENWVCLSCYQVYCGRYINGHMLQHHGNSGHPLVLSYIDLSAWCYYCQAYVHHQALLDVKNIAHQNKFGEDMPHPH
row,Compound,IC50 [nM]
1,"Nc1cnc2ccc(-c3nnn(Cc4cc(F)c(-c5nnc(C(F)F)o5)cc4F)n3)cc2c1 [compound 398, 6-[2-[[4-[5-(difluoromethyl)-1,3,4-oxadiazol-2-yl]-2,5-difluorophenyl]methyl]tetrazol-5-yl]quinolin-3-amine]",49
2,"Nc1ncc2cc(-c3nnn(Cc4ccc(-c5nnc(C(F)F)o5)cc4F)n3)ccc2n1 [compound 424, 6-(2-(4-(5-(difluoromethyl)-1,3,4-oxadiazol-2-yl)-2-fluorobenzyl)-2H-tetrazol-5-yl)quinazolin-2-amine]",76
3,"CC(c1ccc(-c2nnc(C(F)F)o2)cc1)n1cc(-c2ccc(N)nc2)nn1 (centres unmarked) [Compd. 158, 5-(1-(1-(4-(5-(difluoromethyl)-1,3,4-oxadiazol-2-yl)phenyl)ethyl)-1H-1,2,3-triazol-4-yl)pyridin-2-amine]",72
4,"Nc1ncc2cc(-c3nnn(Cc4ccc(-c5nnc(C(F)F)o5)cc4Cl)n3)ccc2n1 [compound 425, 6-(2-(2-chloro-4-(5-(difluoromethyl)-1,3,4-oxadiazol-2-yl)benzyl)-2H-tetrazol-5-yl)quinazolin-2-amine]",545
5,"Fc1cc(-c2nnc(C(F)F)o2)c(F)cc1Cn1nnc(-c2ccc3cnccc3c2)n1 [compound 428, 2-(2,5-difluoro-4-((5-(isoquinolin-6-yl)-2H-tetrazol-2-yl)methyl)phenyl)-5-(difluoromethyl)-1,3,4-oxadiazole]",99
6,"Nc1ncnc2sc(-c3cn(Cc4ccc(-c5nnc(C(F)F)o5)c(F)c4)nn3)cc12 [compound 417, 6-[1-({4-[5-(difluoromethyl)-1,3,4-oxadiazol-2-yl]-3-fluorophenyl}methyl)-1H-1,2,3-triazol-4-yl]thieno[2,3-d]pyrimidin-4-amine]",44
7,"Nc1ncc2cc(-c3nnn(Cc4ccc(-c5nnc(C(F)F)o5)cc4)n3)ccc2n1 [compound 278, 6-(2-(4-(5-(difluoromethyl)-1,3,4-oxadiazol-2-yl)benzyl)-2H-tetrazol-5-yl)quinazolin-2-amine]",186
8,"Fc1cc(-c2nnc(C(F)F)o2)ccc1Cn1nnc(-c2nccc3ccccc23)n1 [compound 431, 2-(difluoromethyl)-5-(3-fluoro-4-((5-(isoquinolin-1-yl)-2H-tetrazol-2-yl)methyl)phenyl)-1,3,4-oxadiazole]",352
9,"Nc1ncnc2cc(-c3cn(Cc4cc(F)c(-c5nnc(C(F)F)o5)cc4F)nn3)ccc12 [compound 433, 7-(1-(4-(5-(difluoromethyl)-1,3,4-oxadiazol-2-yl)-2,5-difluorobenzyl)-1H-1,2,3-triazol-4-yl)quinazolin-4-amine]",23
10,"FC(F)c1nnc(-c2ccc(Cn3nnc(-c4ccc(Cl)cc4Cl)n3)cc2)o1 [compound 263, 2-(4-((5-(2,4-dichlorophenyl)-2H-tetrazol-2-yl)methyl)phenyl)-5-(difluoromethyl)-1,3,4-oxadiazole]",489
11,"Nc1ncnc2cc(-c3cn(Cc4ccc(-c5nnc(C(F)F)o5)cc4Cl)nn3)ccc12 [compound 434, 7-(1-(2-chloro-4-(5-(difluoromethyl)-1,3,4-oxadiazol-2-yl)benzyl)-1H-1,2,3-triazol-4-yl)quinazolin-4-amine]",59
12,"Nc1ncnc2cc(-c3cn(Cc4ccc(-c5nnc(C(F)F)o5)c(F)c4)nn3)ccc12 [compound 418, 7-(1-(4-(5-(difluoromethyl)-1,3,4-oxadiazol-2-yl)-3-fluorobenzyl)-1H-1,2,3-triazol-4-yl)quinazolin-4-amine]",27
13,"Nc1cnc2ccc(-c3nnn(Cc4ccc(-c5nnc(C(F)F)o5)c(F)c4)n3)cc2c1 [compound 400, 6-[2-[[4-[5-(difluoromethyl)-1,3,4-oxadiazol-2-yl]-3-fluorophenyl]methyl]tetrazol-5-yl]quinolin-3-amine]",32
14,"Fc1cc(-c2nnc(C(F)F)o2)ccc1Cn1nnc(-c2ccc3cnccc3c2)n1 [compound 427, 2-(difluoromethyl)-5-(3-fluoro-4-((5-(isoquinolin-6-yl)-2H-tetrazol-2-yl)methyl)phenyl)-1,3,4-oxadiazole]",72
